Results reported in patent US10040781B2, “Tank-binding kinase inhibitor compounds” (Gilead Sciences, Inc., priority 2014, dated 2018).

Key:
hJAK2 = hJAK2 (Homo sapiens (Human), UniProt O60674); assay: hJAK2 LANCE TR-FRET enzymatic assay; assay type: biochemical; settings: read-out: JAK2 IC50
IKKε = IKKε (Homo sapiens (Human), UniProt Q14164); assay: IKKε TR-FRET enzymatic assay; assay type: biochemical; settings: read-out: IKKe IC50
TBK1 = TBK1 (Homo sapiens (Human), UniProt Q9UHD2); assay: TBK1 TR-FRET enzymatic assay;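 note: phosphorylation of a biotinylated Ser/Thr peptide by purified full-length recombinant TBK1, read by TR-FRET after 240 min at 25 °C, IC50 is the geometric mean of at least four runs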
Sequence of TBK1 (Q9UHD2 whole entry): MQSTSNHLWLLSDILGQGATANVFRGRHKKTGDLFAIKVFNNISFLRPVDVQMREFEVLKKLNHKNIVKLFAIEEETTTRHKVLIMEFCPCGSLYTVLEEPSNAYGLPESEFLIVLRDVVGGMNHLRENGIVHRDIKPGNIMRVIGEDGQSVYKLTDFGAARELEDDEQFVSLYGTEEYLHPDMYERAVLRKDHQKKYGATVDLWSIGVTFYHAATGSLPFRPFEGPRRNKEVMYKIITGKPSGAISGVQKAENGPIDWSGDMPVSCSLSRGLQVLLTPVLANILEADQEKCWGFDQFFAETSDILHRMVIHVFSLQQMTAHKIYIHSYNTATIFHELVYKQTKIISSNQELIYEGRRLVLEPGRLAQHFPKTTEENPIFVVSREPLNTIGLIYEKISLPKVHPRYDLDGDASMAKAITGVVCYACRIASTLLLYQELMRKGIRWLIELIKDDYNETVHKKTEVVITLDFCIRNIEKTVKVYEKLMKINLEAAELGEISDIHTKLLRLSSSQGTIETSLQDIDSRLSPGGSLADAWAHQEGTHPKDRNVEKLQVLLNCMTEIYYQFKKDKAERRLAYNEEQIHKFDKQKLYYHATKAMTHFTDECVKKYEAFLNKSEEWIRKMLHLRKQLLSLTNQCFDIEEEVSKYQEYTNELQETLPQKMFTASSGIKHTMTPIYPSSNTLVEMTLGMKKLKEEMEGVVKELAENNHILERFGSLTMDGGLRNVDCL

Sequence of IKKε (Q14164 whole entry): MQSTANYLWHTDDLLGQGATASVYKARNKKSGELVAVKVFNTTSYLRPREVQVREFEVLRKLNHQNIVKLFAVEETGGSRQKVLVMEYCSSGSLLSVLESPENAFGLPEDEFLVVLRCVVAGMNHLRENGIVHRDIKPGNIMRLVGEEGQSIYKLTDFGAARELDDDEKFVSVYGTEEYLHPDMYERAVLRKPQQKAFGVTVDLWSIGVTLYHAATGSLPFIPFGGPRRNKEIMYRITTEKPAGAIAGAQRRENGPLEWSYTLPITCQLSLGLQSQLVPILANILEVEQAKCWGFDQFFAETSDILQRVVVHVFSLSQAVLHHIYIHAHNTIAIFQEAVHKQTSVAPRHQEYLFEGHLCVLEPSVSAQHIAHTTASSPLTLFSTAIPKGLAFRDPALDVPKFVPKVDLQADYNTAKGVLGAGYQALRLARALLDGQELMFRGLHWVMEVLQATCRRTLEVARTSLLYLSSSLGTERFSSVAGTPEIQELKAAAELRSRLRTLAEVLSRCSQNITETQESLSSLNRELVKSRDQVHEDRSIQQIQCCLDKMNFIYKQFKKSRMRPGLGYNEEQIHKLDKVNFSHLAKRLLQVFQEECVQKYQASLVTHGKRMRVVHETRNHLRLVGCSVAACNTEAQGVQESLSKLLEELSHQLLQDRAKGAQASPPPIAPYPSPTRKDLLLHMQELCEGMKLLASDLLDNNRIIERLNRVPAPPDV
Sequence of hJAK2 (O60674 whole entry): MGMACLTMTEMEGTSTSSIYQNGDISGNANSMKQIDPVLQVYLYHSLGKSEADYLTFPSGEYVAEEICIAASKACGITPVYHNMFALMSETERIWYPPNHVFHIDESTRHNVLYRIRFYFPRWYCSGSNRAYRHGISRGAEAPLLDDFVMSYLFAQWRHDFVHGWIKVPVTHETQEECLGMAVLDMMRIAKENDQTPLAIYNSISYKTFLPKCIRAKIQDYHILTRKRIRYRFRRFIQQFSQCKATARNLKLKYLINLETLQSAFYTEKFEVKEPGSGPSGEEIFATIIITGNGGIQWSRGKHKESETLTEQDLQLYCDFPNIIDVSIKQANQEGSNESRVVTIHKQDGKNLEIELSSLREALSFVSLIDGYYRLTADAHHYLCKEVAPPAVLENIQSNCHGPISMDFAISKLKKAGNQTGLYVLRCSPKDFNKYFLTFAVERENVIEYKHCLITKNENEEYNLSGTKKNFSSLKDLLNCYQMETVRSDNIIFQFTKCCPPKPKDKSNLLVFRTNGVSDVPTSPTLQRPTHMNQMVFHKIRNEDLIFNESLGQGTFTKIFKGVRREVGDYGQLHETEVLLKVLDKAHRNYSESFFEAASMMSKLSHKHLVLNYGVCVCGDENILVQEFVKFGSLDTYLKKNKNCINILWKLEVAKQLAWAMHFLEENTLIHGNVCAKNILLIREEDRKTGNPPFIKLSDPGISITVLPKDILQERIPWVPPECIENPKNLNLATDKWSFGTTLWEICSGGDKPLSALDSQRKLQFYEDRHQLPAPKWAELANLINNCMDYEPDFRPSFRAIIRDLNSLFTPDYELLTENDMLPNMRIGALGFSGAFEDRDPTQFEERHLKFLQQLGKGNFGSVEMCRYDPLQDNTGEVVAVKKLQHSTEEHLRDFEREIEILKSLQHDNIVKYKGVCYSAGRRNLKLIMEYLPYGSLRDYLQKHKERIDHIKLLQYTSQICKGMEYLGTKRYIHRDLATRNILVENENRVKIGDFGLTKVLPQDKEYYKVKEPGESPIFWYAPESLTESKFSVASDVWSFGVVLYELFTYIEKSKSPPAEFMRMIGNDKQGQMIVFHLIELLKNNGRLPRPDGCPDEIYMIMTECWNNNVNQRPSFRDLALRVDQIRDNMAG

| IC50 (hJAK2) | IC50 (IKKε) | IC50 (TBK1) | SMILES |
| --- | --- | --- | --- |
| 609 nM | 1 nM | 3 nM | C[C@H](O)C(=O)N1CC[C@H](Oc2ccc(-c3ncnc(Nc4ccc(N5CCOC(C(N)=O)C5)cc4)n3)cc2C#N)[C@H](F)C1 (stereo partly drawn) [Example 314, 4-(4-((4-(3-cyano-4-(((3R,4S)-3-fluoro-1-((S)-2-hydroxypropanoyl)piperidin-4-yl)oxy)phenyl)-1,3,5-triazin-2-yl)amino)phenyl)morpholine-2-carboxamide] |
| 564 nM | 3 nM | 9 nM | C[C@H](O)C(=O)N1CC[C@H](Oc2ccc(-c3ncnc(Nc4ccc(N5CCO[C@@H](C(N)=O)C5)cc4)n3)cc2C#N)[C@H](F)C1 [Example 315, (R)-4-(4-((4-(3-cyano-4-(((3R,4S)-3-fluoro-1-((S)-2-hydroxypropanoyl)piperidin-4-yl)oxy)phenyl)-1,3,5-triazin-2-yl)amino)phenyl)morpholine-2-carboxamide] |
| 347 nM | 2 nM | 3 nM | C[C@H](O)C(=O)N1CC[C@H](Oc2ccc(-c3ncnc(Nc4ccc(N5CCO[C@H](C(N)=O)C5)cc4)n3)cc2C#N)[C@H](F)C1 [Example 316, (S)-4-(4-((4-(3-cyano-4-(((3R,4S)-3-fluoro-1-((S)-2-hydroxypropanoyl)piperidin-4-yl)oxy)phenyl)-1,3,5-triazin-2-yl)amino)phenyl)morpholine-2-carboxamide] |
| ≥ 1000 nM | 1 nM | 2 nM | C[C@H](O)C(=O)N1CC[C@H](Oc2ccc(-c3ncnc(Nc4ccc(N5CC6COCC6C5)cc4)n3)cc2C#N)[C@H](F)C1 (stereo partly drawn) [Example 317, 2-(((3R,4S)-3-fluoro-1-((S)-2-hydroxypropanoyl)piperidin-4-yl)oxy)-5-(4-((4-(tetrahydro-1H-furo[3,4-c]pyrrol-5(3H)-yl)phenyl)amino)-1,3,5-triazin-2-yl)benzonitrile] |
| 102 nM | 7 nM | 4 nM | N#Cc1cc(-c2ncnc(Nc3ccc(N4CCN(C5COC5)CC4)cc3)n2)ccc1O[C@H]1CCN(C(=O)Cc2cnn[nH]2)C[C@H]1F [Example 319, 2-(((3R,4S)-1-(2-(1H-1,2,3-triazol-5-yl)acetyl)-3-fluoropiperidin-4-yl)oxy)-5-(4-((4-(4-(oxetan-3-yl)piperazin-1-yl)phenyl)amino)-1,3,5-triazin-2-yl)benzonitrile] |
| 192 nM | 8 nM | 5 nM | N#Cc1cc(-c2ncnc(Nc3ccc(N4CCN(C5COC5)CC4)cc3)n2)ccc1O[C@H]1CCN(C(=O)c2[nH]ncc2Cl)C[C@H]1F [Example 322, 2-(((3R,4S)-1-(4-chloro-1H-pyrazole-5-carbonyl)-3-fluoropiperidin-4-yl)oxy)-5-(4-((4-(4-(oxetan-3-yl)piperazin-1-yl)phenyl)amino)-1,3,5-triazin-2-yl)benzonitrile] |
| 75 nM | 3 nM | 3 nM | N#Cc1cc(-c2ncnc(Nc3ccc(N4CCN(C5COC5)CC4)cc3)n2)ccc1O[C@H]1CCN(C(=O)c2[nH]nc(N)c2Cl)C[C@H]1F [Example 323, 2-(((3R,4S)-1-(3-amino-4-chloro-1H-pyrazole-5-carbonyl)-3-fluoropiperidin-4-yl)oxy)-5-(4-((4-(4-(oxetan-3-yl)piperazin-1-yl)phenyl)amino)-1,3,5-triazin-2-yl)benzonitrile] |
| 62 nM | 2 nM | 4 nM | COc1cc(Nc2ncnc(-c3ccc(O[C@H]4CCN(C(=O)CC#N)C[C@H]4F)c(C#N)c3)n2)ccc1N1CCC(N2CCOCC2)CC1 [Example 327, 2-(((3R,4S)-1-(2-cyanoacetyl)-3-fluoropiperidin-4-yl)oxy)-5-(4-((3-methoxy-4-(4-morpholinopiperidin-1-yl)phenyl)amino)-1,3,5-triazin-2-yl)benzonitrile] |
| 648 nM | 3 nM | 4 nM | N#Cc1cc(-c2ncnc(Nc3ccc(N4CCN(C5COC5)CC4)cc3)n2)cc(F)c1O[C@H]1CCN(C(=O)CO)C[C@H]1F [Example 329, 3-fluoro-2-(((3R,4S)-3-fluoro-1-(2-hydroxyacetyl)piperidin-4-yl)oxy)-5-(4-((4-(4-(oxetan-3-yl)piperazin-1-yl)phenyl)amino)-1,3,5-triazin-2-yl)benzonitrile] |
| 943 nM | 14 nM | 7 nM | N#Cc1cc(-c2ncnc(Nc3ccc(N4CCN(C5COC5)CC4)cc3)n2)cc(F)c1O[C@H]1CCN(C(=O)CCO)C[C@H]1F [Example 331, 3-fluoro-2-(((3R,4S)-3-fluoro-1-(3-hydroxypropanoyl)piperidin-4-yl)oxy)-5-(4-((4-(4-(oxetan-3-yl)piperazin-1-yl)phenyl)amino)-1,3,5-triazin-2-yl)benzonitrile] |
| 943 nM | 5 nM | 10 nM | N#Cc1cc(-c2ncnc(Nc3ccc(OCCN4CCCC4)cc3)n2)ccc1OC1CCOCC1 [Example 332, 5-(4-((4-(2-(pyrrolidin-1-yl)ethoxy)phenyl)amino)-1,3,5-triazin-2-yl)-2-((tetrahydro-2H-pyran-4-yl)oxy)benzonitrile] |
| 233 nM | 3 nM | 2 nM | N#Cc1cc(-c2ncnc(Nc3ccc(N4CCN(C5COC5)CC4)cc3)n2)ccc1O[C@H]1CCN(C(=O)[C@@H]2COC(=O)N2)C[C@H]1F [Example 333, 2-(((3R,4S)-3-fluoro-1-((S)-2-oxooxazolidine-4-carbonyl)piperidin-4-yl)oxy)-5-(4-((4-(4-(oxetan-3-yl)piperazin-1-yl)phenyl)amino)-1,3,5-triazin-2-yl)benzonitrile] |

Second part, the compound before the results:

| SMILES | IC50 (hJAK2) | IC50 (IKKε) | IC50 (TBK1) |
| --- | --- | --- | --- |
| N#Cc1cc(-c2ncnc(Nc3ccc(N4CCN(C5COC5)CC4)cc3)n2)ccc1O[C@H]1CCN(C(=O)Cc2ccn[nH]2)C[C@H]1F [Example 320, 2-(((3R,4S)-1-(2-(1H-pyrazol-5-yl)acetyl)-3-fluoropiperidin-4-yl)oxy)-5-(4-((4-(4-(oxetan-3-yl)piperazin-1-yl)phenyl)amino)-1,3,5-triazin-2-yl)benzonitrile] | 127 nM | 40 nM | 14 nM |
| Cc1cc(C(=O)N2CC[C@H](Oc3ccc(-c4ncnc(Nc5ccc(N6CCN(C7COC7)CC6)cc5)n4)cc3C#N)[C@H](F)C2)[nH]n1 [Example 321, 2-(((3R,4S)-3-fluoro-1-(3-methyl-1H-pyrazole-5-carbonyl)piperidin-4-yl)oxy)-5-(4-((4-(4-(oxetan-3-yl)piperazin-1-yl)phenyl)amino)-1,3,5-triazin-2-yl)benzonitrile] | 164 nM | 2 nM | 3 nM |
| COc1cc(Nc2ncnc(-c3ccc(O[C@H]4CCN(C(=O)[C@H](C)O)C[C@H]4F)c(C#N)c3)n2)ccc1N1CCC(N2CCOCC2)CC1 [Example 326, 2-(((3R,4S)-3-fluoro-1-((S)-2-hydroxypropanoyl)piperidin-4-yl)oxy)-5-(4-((3-methoxy-4-(4-morpholinopiperidin-1-yl)phenyl)amino)-1,3,5-triazin-2-yl)benzonitrile] | 72 nM | 1 nM | 2 nM |
| C[C@H](O)C(=O)N1CC[C@H](Oc2c(F)cc(-c3ncnc(Nc4ccc(N5CCN(C6COC6)CC5)cc4)n3)cc2C#N)[C@H](F)C1 [Example 328, 3-fluoro-2-(((3R,4S)-3-fluoro-1-((S)-2-hydroxypropanoyl)piperidin-4-yl)oxy)-5-(4-((4-(4-(oxetan-3-yl)piperazin-1-yl)phenyl)amino)-1,3,5-triazin-2-yl)benzonitrile] | ≥ 1000 nM | 4 nM | 4 nM |
| N#CCC(=O)N1CC[C@H](Oc2c(F)cc(-c3ncnc(Nc4ccc(N5CCN(C6COC6)CC5)cc4)n3)cc2C#N)[C@H](F)C1 [Example 330, 2-(((3R,4S)-1-(2-cyanoacetyl)-3-fluoropiperidin-4-yl)oxy)-3-fluoro-5-(4-((4-(4-(oxetan-3-yl)piperazin-1-yl)phenyl)amino)-1,3,5-triazin-2-yl)benzonitrile] | 941 nM | 6 nM | 4 nM |
| N#Cc1cc(-c2ncnc(Nc3ccc(N4CCN(C5COC5)CC4)cc3)n2)ccc1O[C@H]1CCN(C(=O)c2nc(N)n[nH]2)C[C@H]1F [Example 334, 2-(((3R,4S)-1-(3-amino-1H-1,2,4-triazole-5-carbonyl)-3-fluoropiperidin-4-yl)oxy)-5-(4-((4-(4-(oxetan-3-yl)piperazin-1-yl)phenyl)amino)-1,3,5-triazin-2-yl)benzonitrile] | 80 nM | 2 nM | 16 nM |
| CC(=O)N[C@@H](C)C(=O)N1CC[C@H](Oc2ccc(-c3ncnc(Nc4ccc(N5CCN(C6COC6)CC5)cc4)n3)cc2C#N)[C@H](F)C1 [Example 335, N—((S)-1-((3R,4S)-4-(2-cyano-4-(4-((4-(4-(oxetan-3-yl)piperazin-1-yl)phenyl)amino)-1,3,5-triazin-2-yl)phenoxy)-3-fluoropiperidin-1-yl)-1-oxopropan-2-yl)acetamide] | 478 nM | 834 nM | 508 nM |
| N#Cc1cc(-c2ncnc(Nc3ccc(N4CCN(C5COC5)CC4)cc3)n2)ccc1O[C@H]1CCN(C(=O)c2ccncn2)C[C@H]1F [Example 337, 2-(((3R,4S)-3-fluoro-1-(pyrimidine-4-carbonyl)piperidin-4-yl)oxy)-5-(4-((4-(4-(oxetan-3-yl)piperazin-1-yl)phenyl)amino)-1,3,5-triazin-2-yl)benzonitrile] | 572 nM | 7 nM | 4 nM |
| N#Cc1cc(-c2ncnc(Nc3ccc(N4CCN(C5COC5)CC4)cc3)n2)ccc1O[C@H]1CCN(C(=O)c2ccnnc2)C[C@H]1F [Example 338, 2-(((3R,4S)-3-fluoro-1-(pyridazine-4-carbonyl)piperidin-4-yl)oxy)-5-(4-((4-(4-(oxetan-3-yl)piperazin-1-yl)phenyl)amino)-1,3,5-triazin-2-yl)benzonitrile] | 131 nM | 18 nM | 9 nM |
